Test results: patent US20250243210A1, “CRBN E3 LIGASE LIGAND COMPOUND, PROTEIN DEGRADER DEVELOPED BASED THEREON AND THEIR APPLICATIONS” (GLUETACS THERAPEUTICS (SHANGHAI) CO., LTD., priority 2021, published 2025)
Read-outs that look alike come from different tables or passages of the source.

What was measured:
[1] = test system: Kasumi-1; assay: CCK-8 tumor cell proliferation, Kasumi-1; assay type: cell-based; conditions: Homo sapiens, Kasumi-1, 72 h, read-out: IC50 for inhibiting the proliferation of tumor cells, Kasumi-1
Method: (§1) Determination of half inhibitory concentration (IC50) of the compounds against tumor cells:
(§2) The tumor cells used herein were cultured in a cell culture medium listed in table 6 at 37° C. in an incubator with 5% CO2.
(§3) After the cells were treated with the compounds of the present disclosure for a period of time (the treatment times listed in Table 7), the cell viability detection reagent was added to the culture medium for cell viability assessment according to the instructions provided with the CCK-8 kit. […] The growth inhibition of the compounds of the present disclosure on cells was plotted by Prism Graphpad software, and the IC50 values of the compounds of the present disclosure were calculated therefrom.

[2] = test system: SU-DHL-6; assay: CCK-8 tumor cell proliferation, SU-DHL-6; assay type: cell-based; conditions: Homo sapiens, SU-DHL-6, 72 h, read-out: IC50 for inhibiting the proliferation of tumor cells, SU-DHL-6
Method: as §1, §2, §3

[3] = biological target: human Cereblon WT GST-tagged protein (Homo sapiens (Human), UniProt Q96SW2); assay: CRBN binding, HTRF (CEREBLON BINDING kit)
Sequence of human Cereblon WT GST-tagged protein (Q96SW2 whole entry): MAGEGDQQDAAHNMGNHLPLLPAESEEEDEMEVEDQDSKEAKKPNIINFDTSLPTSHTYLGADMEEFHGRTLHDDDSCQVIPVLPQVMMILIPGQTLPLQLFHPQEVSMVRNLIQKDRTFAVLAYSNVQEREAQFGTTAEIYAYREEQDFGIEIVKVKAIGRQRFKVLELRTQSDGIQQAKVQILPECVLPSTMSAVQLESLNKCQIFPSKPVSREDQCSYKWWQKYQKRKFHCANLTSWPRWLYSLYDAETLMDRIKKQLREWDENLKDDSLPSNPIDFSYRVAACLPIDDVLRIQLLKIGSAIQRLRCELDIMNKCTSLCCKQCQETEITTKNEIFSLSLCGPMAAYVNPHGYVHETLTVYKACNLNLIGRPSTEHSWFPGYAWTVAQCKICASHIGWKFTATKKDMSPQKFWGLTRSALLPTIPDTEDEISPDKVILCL
Method: Determination of CRBN-Binding Affinity of Compounds
The CEREBLON BINDING kits (specification: 10,000 tests; product number: Catalog #64BDCRBNPEH; CISBIO company) was used to determine the CRBN binding ability of the compounds to be tested through a HTRF method (homogeneous time-resolved fluorescence). The specific methods are as follows: • 1. […] Then, 2.5 μL of (human Cereblon WT GST-tagged protein) solution was added to each well. Finally, 5 μL of the uniformly mixed thalidomide-Red reagent and GST Eu antibody working solution were added to each of the above wells. […] The blank control wells were sequentially added with 2.5 μL of diluent #9 (1×) solution, 2.5 μL of ligand binding buffer, and 5 μL of uniformly mixed thalidomide-Red reagent and GST Eu antibody working solution. • 4. […] The corresponding CRBN binding inhibition rate was calculated using the following method: […]

[4] = test system: LNcap; assay: CCK-8 tumor cell proliferation, LNcap; assay type: cell-based, Human; conditions: 96 h, read-out: IC50 for inhibiting the proliferation of tumor cells, LNcap
Method: as §1
(§4) The tumor cells used herein were cultured in a cell culture medium listed in table 6 at 37° C. in an incubator with 5% CO2. Prior to experimentation, all cells used were correctly identified by STR profiling, and tested negative for mycoplasma through routine screenings.
(§5) IC50 values of the compounds of the present disclosure (including the compounds in Table 4 and compounds of examples 1-72) were measured using the Meilun Cell Counting Kit-S kit from Dalian Meilun Biotech Co., Ltd. Assay details are as follows: tumor cells were seeded in a 96-well plate at a density listed in Table 7. After 24 h, 100 μL of the inoculated cells were treated with 0.5 μL of the compounds of the present disclosure (including the compounds in Table 4 and compounds of examples 1-72) at 10 different successively decreasing concentrations (starting at the highest concentration of 10 μM; 5-fold serial dilutions). After the cells were treated with the compounds of the present disclosure for a period of time (the treatment times listed in Table 7), the cell viability detection reagent was added to the culture medium for cell viability assessment according to the instructions provided with the CCK-8 kit. […] The growth inhibition of the compounds of the present disclosure on cells was plotted by Prism Graphpad software, and the IC50 values of the compounds of the present disclosure were calculated therefrom.

[5] = test system: PC-3; assay: CCK-8 tumor cell proliferation, PC-3; assay type: cell-based, Human; conditions: PC-3, 96 h, read-out: IC50 for inhibiting the proliferation of tumor cells, PC-3
Method: as §1, §2, §3

[6] = test system: DU-145; assay: CCK-8 tumor cell proliferation, DU-145; assay type: cell-based, Human; conditions: DU-145, 96 h, read-out: IC50 for inhibiting the proliferation of tumor cells, DU-145
Method: as §1, §2, §3

[7] = test system: WSU-DLCL2; assay: CCK-8 tumor cell proliferation, WSU-DLCL2; assay type: cell-based, Human; conditions: read-out: IC50 for inhibiting the proliferation of tumor cells, WSU-DLCL2
Method: as §1, §2, §3

[8] = test system: MGC80-3; assay: CCK-8 tumor cell proliferation, MGC80-3; assay type: cell-based, Human; conditions: read-out: IC50 for inhibiting the proliferation of tumor cells, MGC80-3
Method: as §1, §4, §5

[9] = test system: Hep3B2.1-7; assay: CCK-8 tumor cell proliferation, Hep3B2.1-7; assay type: cell-based, Human; conditions: Homo sapiens, Hep3B2.1-7, 96 h, read-out: IC50 for inhibiting the proliferation of tumor cells, Hep3B2.1-7
Method: as §1, §4, §5

[10] = Homo sapiens, WSUDLCL2, WSU-DLCL2, 96 h
[11] = Homo sapiens, MGC-803, MGC80-3, 96 h

## Cc1nc(Nc2ncc(C(=O)Nc3c(C)cccc3Cl)s2)cc(N2CCC(CN3CC4CCC(C3)N4c3cc4c(cc3F)C(=O)N(C3CCC(=O)NC3=O)C4=O)CC2)n1 (centres unmarked) [GT-03627, N-(2-chloro-6-methylphenyl)-2-((6-(4-((8-(2-(2,6-dioxopiperidin-3-yl)-6-fluoro-1,3-dioxoisoindolin-5-yl)-3,8-diazabicyclo[3.2.1]octan-3-yl)methyl)piperidin-1-yl)-2-methylpyrimidin-4-yl)amino)thiazole-5-carboxamide]
[1]
  IC50: 100 to 500 nM
[2]
  IC50: 100 to 500 nM

## O=C1CCC(N2C(=O)c3cc(F)c(N4CC5CC(C4)N5)cc3C2=O)C(=O)N1 (centres unmarked) [GT-03109, 5-(3,6-diazabicyclo[3.1.1]heptan-3-yl)-2-(2,6-dioxopiperidin-3-yl)-6-fluoroisoindoline-1,3-dione]
[3]
  IC50: 3550 nM

## O=C1CCC(N2C(=O)c3cc(F)c(N4C5CNCC4C5)cc3C2=O)C(=O)N1 (centres unmarked) [GT-03106, 5-(3,6-diazabicyclo[3.1.1]heptan-6-yl)-2-(2,6-dioxopiperidin-3-yl)-6-fluoroisoindoline-1,3-dione]
[3]
  IC50: 4040 nM

## O=C1CCC(N2C(=O)c3cc(F)c(N4C5CCC4CNC5)cc3C2=O)C(=O)N1 (centres unmarked) [GT-03211, 5-(3,8-diazabicyclo[3.2.1]octan-8-yl)-2-(2,6-dioxopiperidin-3-yl)-6-fluoroisoindoline-1,3-dione]
[3]
  IC50: 9800 nM

## [2H]C1([2H])NC([2H])([2H])C([2H])([2H])N(c2cc3c(cc2F)C(=O)N(C2CCC(=O)NC2=O)C3=O)C1([2H])[2H] (centres unmarked) [GT-03108, 2-(2,6-dioxopiperidin-3-yl)-5-fluoro-6-(piperazin-1-yl-2,2,3,3,5,5,6,6-d8)isoindoline-1,3-dione]
[3]
  IC50: 8750 nM

## Cc1nc(Nc2ncc(C(=O)Nc3c(C)cccc3Cl)s2)cc(N2CCC(CN3CC4CC(C3)N4c3cc4c(cc3F)C(=O)N(C3CCC(=O)NC3=O)C4=O)CC2)n1 (centres unmarked) [GT-03628, N-(2-chloro-6-methylphenyl)-2-((6-(4-((6-(2-(2,6-dioxopiperidin-3-yl)-6-fluoro-1,3-dioxoisoindolin-5-yl)-3,6-diazabicyclo[3.1.1]heptan-3-yl)methyl)piperidin-1-yl)-2-methylpyrimidin-4-yl)amino)thiazole-5-carboxamide]
[1]
  IC50: 100 to 500 nM

## CC1(C)[C@H](NC(=O)c2ccc(N3CCC(CN4CC5CC(C4)N5c4ccc5c(c4)C(=O)N(C4CCC(=O)NC4=O)C5=O)CC3)nn2)C(C)(C)[C@H]1Oc1ccc(C#N)c(Cl)c1 (some centres unmarked) [GT-03400, N-((1r,3r)-3-(3-chloro-4-cyanophenoxy)-2,2,4,4-tetramethylcyclobutyl)-6-(4-((6-(2-(2,6-dioxopiperidin-3-yl)-1,3-dioxoisoindolin-5-yl)-3,6-diazabicyclo[3.1.1]heptan-3-yl)methyl)piperidin-1-yl)pyridazine-3-carboxamide]
[4]; Homo sapiens
  IC50: 100 to 500 nM
[5]; Homo sapiens
  IC50: 100 to 500 nM
[6]; Homo sapiens
  IC50: 100 to 500 nM
[7]; [10]
  IC50: 500 to 1000 nM
[8]; [11]
  IC50: 100 to 500 nM

## N#Cc1ccc(OC2CCC(NC(=O)c3ccc(N4CCC(CN5CC6CC(C5)N6c5ccc6c(c5)C(=O)N(C5CCC(=O)NC5=O)C6=O)CC4)nn3)CC2)cc1Cl (centres unmarked) [GT-03339, N-((1r,4r)-4-(3-chloro-4-cyanophenoxy)cyclohexyl)-6-(4-((6-(2-(2,6-dioxopiperidin-3-yl)-1,3-dioxoisoindolin-5-yl)-3,6-diazabicyclo[3.1.1]heptan-3-yl)methyl)piperidin-1-yl)pyridazine-3-carboxamide]
[4]
  IC50: 100 to 500 nM
[5]
  IC50: 100 to 500 nM
[6]
  IC50: 100 to 500 nM
[7]; WSU-DLCL2, 96 h
  IC50: 100 to 500 nM
[8]; MGC80-3, 96 h
  IC50: 50 to 100 nM

## O=C1CCC(N2C(=O)c3ccc(N4CC5CCC(C4)N5)cc3C2=O)C(=O)N1 (centres unmarked) [GT-03077, 5-(3,8-diazabicyclo[3.2.1]octan-3-yl)-2-(2,6-dioxopiperidin-3-yl)isoindoline-1,3-dione]
[3]
  IC50: 5200 nM

## Cc1nc(Nc2ncc(C(=O)Nc3c(C)cccc3Cl)s2)cc(N2CCC(CN3CC4CCC(C3)N4c3ccc4c(c3)C(=O)N(C3CCC(=O)NC3=O)C4=O)CC2)n1 (centres unmarked) [GT-03629, N-(2-chloro-6-methylphenyl)-2-((6-(4-((8-(2-(2,6-dioxopiperidin-3-yl)-1,3-dioxoisoindolin-5-yl)-3,8-diazabicyclo[3.2.1]octan-3-yl)methyl)piperidin-1-yl)-2-methylpyrimidin-4-yl)amino)thiazole-5-carboxamide]
[1]
  IC50: 100 to 500 nM
[2]
  IC50: 100 to 500 nM

## O=C1CCC(N2C(=O)c3ccc(N4CC5CC(C4)N5)cc3C2=O)C(=O)N1 (centres unmarked) [GT-03075, 5-(3,6-diazabicyclo[3.1.1]heptan-3-yl)-2-(2,6-dioxopiperidin-3-yl)isoindoline-1,3-dione]
[3]
  IC50: 5090 nM

## CC1(C)[C@H](NC(=O)c2ccc(N3CCC(CN4C5CC4CN(c4ccc6c(c4)C(=O)N(C4CCC(=O)NC4=O)C6=O)C5)CC3)nn2)C(C)(C)[C@H]1Oc1ccc(C#N)c(Cl)c1 (some centres unmarked) [GT-03401, N-((1r,3r)-3-(3-chloro-4-cyanophenoxy)-2,2,4,4-tetramethylcyclobutyl)-6-(4-((3-(2-(2,6-dioxopiperidin-3-yl)-1,3-dioxoisoindolin-5-yl)-3,6-diazabicyclo[3.1.1]heptan-6-yl)methyl)piperidin-1-yl)pyridazine-3-carboxamide]
[4]; Homo sapiens
  IC50: 500 to 1000 nM
[5]; Homo sapiens
  IC50: 100 to 500 nM
[6]; Homo sapiens
  IC50: 500 to 1000 nM
[7]; [10]
  IC50: 1000 to 5000 nM
[8]; [11]
  IC50: 100 to 500 nM

## CC1(C)[C@H](NC(=O)c2ccc(N3CCC(CN4CC5CC(C4)N5c4cc5c(cc4F)C(=O)N(C4CCC(=O)NC4=O)C5=O)CC3)nc2)C(C)(C)[C@H]1Oc1ccc(C#N)c(Cl)c1 (some centres unmarked) [GT-03403, N-((1r,3r)-3-(3-chloro-4-cyanophenoxy)-2,2,4,4-tetramethylcyclobutyl)-6-(4-((6-(2-(2,6-dioxopiperidin-3-yl)-6-fluoro-1,3-dioxoisoindolin-5-yl)-3,6-diazabicyclo[3.1.1]heptan-3-yl)methyl)piperidin-1-yl)nicotinamide]
[4]; Homo sapiens
  IC50: 500 to 1000 nM
[5]; Homo sapiens
  IC50: 100 to 500 nM
[6]; Homo sapiens
  IC50: 100 to 500 nM
[7]; [10]
  IC50: 5000 to 10000 nM
[8]; [11]
  IC50: 500 to 1000 nM

## CC1(C)[C@H](NC(=O)c2ccc(N3CCC(CN4C5CCC4CN(c4ccc6c(c4)C(=O)N(C4CCC(=O)NC4=O)C6=O)C5)CC3)nn2)C(C)(C)[C@H]1Oc1ccc(C#N)c(Cl)c1 (some centres unmarked) [GT-03399, N-((1r,3r)-3-(3-chloro-4-cyanophenoxy)-2,2,4,4-tetramethylcyclobutyl)-6-(4-((3-(2-(2,6-dioxopiperidin-3-yl)-1,3-dioxoisoindolin-5-yl)-3,8-diazabicyclo[3.2.1]octan-8-yl)methyl)piperidin-1-yl)pyridazine-3-carboxamide]
[4]; Homo sapiens
  IC50: 100 to 500 nM
[5]; Homo sapiens
  IC50: 100 to 500 nM
[6]; Homo sapiens
  IC50: 100 to 500 nM
[7]; [10]
  IC50: 500 to 1000 nM
[9]
  IC50: 100 to 500 nM

## O=C1CCC(N2C(=O)c3ccc(N4C5CCC4CNC5)cc3C2=O)C(=O)N1 (centres unmarked) [GT-03210, 5-(3,8-diazabicyclo[3.2.1]octan-8-yl)-2-(2,6-dioxopiperidin-3-yl)isoindoline-1,3-dione]
[3]
  IC50: 2690 nM

## O=C1CCC(N2C(=O)c3ccc(N4CC5CCC4CN5)cc3C2=O)C(=O)N1 (centres unmarked) [GT-03076, 5-(2,5-diazabicyclo[2.2.2]octan-2-yl)-2-(2,6-dioxopiperidin-3-yl)isoindoline-1,3-dione]
[3]
  IC50: 650 nM
